From US20220033364A1, “INSECTICIDAL COMPOUNDS” (SYNGENTA CROP PROTECTION AG, priority 2018, published 2022)

Experiments:
Assay type in all cases: in vivo
Euschistus heros = Euschistus heros (neotropical brown stink bug) soybean leaf spray test; conditions: 120 h, spray on soybean leaves, N2 nymphs, 5 days after infestation, read-out: effect in at least one of the two categories (mortality or growth inhibition)
Procedure: Soybean leaves on agar in 24-well microtiter plates were sprayed with aqueous test solutions prepared from 10′000 ppm DMSO stock solutions. After drying the leaves were infested with N2 nymphs. The samples were assessed for mortality and growth inhibition in comparison to untreated samples 5 days after infestation.

Spodoptera littoralis = Spodoptera littoralis (Egyptian cotton leaf worm) cotton leaf disc test; conditions: foliar, 72 h, spray on cotton leaf discs, L1 larvae, 3 days after infestation, read-out: control (mortality, anti-feeding effect or growth inhibition)
Procedure: Cotton leaf discs were placed onto agar in 24-well microtiter plates and sprayed with aqueous test solutions prepared from 10′000 ppm DMSO stock solutions. After drying the leaf discs were infested with five L1 larvae. The samples were assessed for mortality, anti-feeding effect, and growth inhibition in comparison to untreated samples 3 days after infestation. Control of Spodoptera littoralis by a test sample is given when at least one of the categories mortality, anti-feedant effect, and growth inhibition is higher than the untreated sample.

Plutella xylostella [1] = assay: Plutella xylostella (diamond back moth) artificial diet test, eggs; conditions: 192 h, 8 days after infestation, read-out: effect in at least one of the two categories (mortality or growth inhibition)
Procedure: 24-well microtiter plates with artificial diet were treated with aqueous test solutions prepared from 10′000 ppm DMSO stock solutions by pipetting. After drying, Plutella eggs were pipetted through a plastic stencil onto a gel blotting paper and the plate was closed with it. The samples were assessed for mortality and growth inhibition in comparison to untreated samples 8 days after infestation.

Plutella xylostella [2] = assay: Plutella xylostella (diamond back moth) artificial diet test, L2 larvae; conditions: 120 h, 5 days after infestation, read-out: effect in at least one of the two categories (mortality or growth inhibition)
Procedure: (§1) 24-well microtiter plates with artificial diet were treated with aqueous test solutions prepared from 10′000 ppm DMSO stock solutions by pipetting. After drying, the plates were infested with L2 larvae (10 to 15 per well). The samples were assessed for mortality and growth inhibition in comparison to untreated samples 5 days after infestation.

Tetranychus urticae = Tetranychus urticae (two-spotted spider mite) feeding/contact activity; conditions: foliar, 192 h, spray on bean leaf discs, mixed population (mobile stages), 8 days after infestation
Procedure: Bean leaf discs on agar in 24-well microtiter plates were sprayed with aqueous test solutions prepared from 10′000 ppm DMSO stock solutions. After drying the leaf discs were infested with a mite population of mixed ages. The samples were assessed for mortality on mixed population (mobile stages) 8 days after infestation.

Diabrotica balteata = Diabrotica balteata (corn root worm) maize sprout spray test; conditions: 96 h, spray on maize sprouts, L2 larvae, 4 days after infestation, read-out: effect in at least one of the two categories (mortality or growth inhibition)
Procedure: as §1, with “Maize sprouts placed onto an agar layer in 24-well” for “24-well”, “plates” for “plates with artificial diet”, “spraying.” for “pipetting.”, “(6” for “(10”, “10” for “15”, “4” for “5”

Thrips tabaci = Thrips tabaci (onion thrips) feeding/contact activity; conditions: foliar, 144 h, spray on sunflower leaf discs, mixed ages, 6 days after infestation
Procedure: Sunflower leaf discs were placed on agar in 24-well microtiter plates and sprayed with aqueous test solutions prepared from 10′000 ppm DMSO stock solutions. After drying the leaf discs were infested with a thrips population of mixed ages. The samples were assessed for mortality 6 days after infestation.

Myzus persicae = Myzus persicae (green peach aphid) feeding/contact activity; conditions: foliar, 144 h, spray on sunflower leaf discs, mixed ages, 6 days after infestation
Procedure: Sunflower leaf discs were placed onto agar in a 24-well microtiter plate and sprayed with aqueous test solutions prepared from 10′000 ppm DMSO stock solutions. After drying, the leaf discs were infested with an aphid population of mixed ages. The samples were assessed for mortality 6 days after infestation.

Cc1cc(C2=NO[C@@](c3cc(Cl)c(F)c(Cl)c3)(C(F)(F)F)C2)ccc1C(=O)N(COC1CC1)[C@H]1CON(S(=O)(=O)C(F)F)C1 [Compound A2, N-(cyclopropoxymethyl)-4-[(5S)-5-(3,5-dichloro-4-fluoro-phenyl)-5-(trifluoromethyl)-4H-isoxazol-3-yl]-N-[(4R)-2-(difluoromethylsulfonyl)isoxazolidin-4-yl]-2-methyl-benzamide]
≥ 80%: percent effect (mortality or growth inhibition) at 200 ppm (Euschistus heros) | percent control (mortality, anti-feedant effect or growth inhibition) at 200 ppm (Spodoptera littoralis) | percent effect (mortality or growth inhibition) at 200 ppm (Plutella xylostella [1])

Cc1cc(C2=NO[C@@](c3cc(Cl)c(F)c(Cl)c3)(C(F)(F)F)C2)ccc1C(=O)N(C(=O)C1CC1)[C@H]1CON(S(=O)(=O)C(F)F)C1 [Compound A1, N-(cyclopropanecarbonyl)-4-[(5S)-5-(3,5-dichloro-4-fluoro-phenyl)-5-(trifluoromethyl)-4H-isoxazol-3-yl]-N-[(4R)-2-(difluoromethylsulfonyl)isoxazolidin-4-yl]-2-methyl-benzamide]
≥ 80%: percent effect (mortality or growth inhibition) at 200 ppm (Plutella xylostella [2]) | percent effect (mortality or growth inhibition) at 200 ppm (Euschistus heros) | mortality at 200 ppm (Tetranychus urticae) | percent effect (mortality or growth inhibition) at 200 ppm (Diabrotica balteata) | percent control (mortality, anti-feedant effect or growth inhibition) at 200 ppm (Spodoptera littoralis) | mortality at 200 ppm (Thrips tabaci) | mortality at 200 ppm (Myzus persicae)
